The results in this text go back to US10854312B2, “Selective peptide antagonists” (BIONIZ, LLC, priority 2013, dated 2020).

What all share (type): cell-based
One test has as its system human IL-2. Description: NK92 cell proliferation assay (WST-1), IL-2. Particulars: 24 h. As to the method:
Human peripheral blood mononuclear cells were purified by the Ficoll-paque gradient centrifugation (GE-Healthcare) and stimulated by PHA (5 μg ml^−1, Sigma) for 48 h, then expanded with IL-2 (0.5 nM, Peprotech) for 48h, and then depleted of non-T cells by the Pan-T cell negative enrichment Ab cocktails (Miltenyi). The purified T cells were then fasted of IL-2 overnight prior to the proliferation assay by the tetrazolium dye method. Four hundred thousand cells (in 200 μl culture) were incubated with the cytokines and BNZ132-1 at the indicated concentrations for 24 h, and 20 μl WST1 reagent (Clontech) was added to each well. After 12 h incubation, OD450 was measured. The assay was performed in triplicate. […] NK 92 cells were cultured in human IL-2. Cells were washed to withdraw IL-2 for overnight and two hundred thousand cells (in 200 μl volume) were incubated with the indicated concentrations of the cytokine and BNZ132-1 for 24 h before 20 μl WST-1 reagent (Clontech) was added to each well to measure proliferative response. Absorbance at 450 nm was read at 6 h after the addition of the WST-1 dye. The assay was performed in triplicate. The assay was performed in triplicate and the figure represents a typical result out of 5 different HAM-TSP patients.
FIG. 8B, and FIG. 8C show the results of NK92 cell proliferation assay. NK92 cells responded to IL-2 and IL-15. […]

A further test concerns γc-cytokines. Briefly: Target cytokine spectrum within the γc-family.
The subject of a further test is human IL-15. Description: CTLL-2 proliferation assay (WST-1), IL-15. Particulars: murine CTLL-2 cells, 1 nM human IL-15, BNZ132-1 50 and 500 nM, WST-1 OD450. As to the method:
FIG. 6A-FIG. 6E presents inhibitory spectrum of BNZ132-1 over γc- and non-γc-cytokines. […] Neutralizing antibodies against each cytokine (R & D systems, 5 μg ml^−1) were included as controls. After 20 h, the cells were pulsed with WST-1 (Clontech) and OD450 of each well was measured after 6 h. A 19-mer scrambled peptide was used as a negative control at 5 μM. The experiments were conducted in triplicate (applies to all experiments in FIG. 6A-FIG. 6E). The result represents one of at least three independent experiments (applies to all experiments in FIG. 6A-FIG. 6E). […] In PT-18 proliferation assay, PT-18β or PT-18h21Rα cells were withdrawn of mouse IL-3 for 12 h before the experiment. Cells were then incubated with 1 nM of mouse IL-4, mouse IL-9, or mouse IL-21 in the presence or absence of the indicated doses (μM) of BNZ132-1. Neutralizing antibodies to each cytokine (5 μg ml^−1, except for anti-mouse IL-21 polyclonal antibody which was used at 15 μg ml−1) and a scrambled control peptide (5 μM) were included as negative controls. WST-1 assay was conducted as described above. […] In PT-18 h21Rα survival assay, PT-18h21Rα cells are described in the text. […] Both parental and hIL-21Rα positive PT-18 cells were washed and incubated without IL-3 for 12 h before the assay. […] The Y-axis represents the cpm (count per minute) values measured by a β-counter. […]
(Formazan colour is commonly taken as a measure of viable cells.)

Entries after “also recorded” stand apart in the source; their conditions may differ. No end group written: not given here.

Turning to IKEFLQRFIHIVQSIINTS [BNZ132-1], the “inhibition of IL-2-induced proliferation of NK92 cells” value in the test with human IL-2 was “dose-dependent manner; also recorded: dose-dependent inhibition”. Also, in the test on γc-cytokines (IL-4, IL-7 and IL-21), the γc-cytokines not inhibited result is “excludes IL-4,-7 or -21”. The γc-cytokines inhibited result in the test with γc-cytokines (summary statements, BNZ132-2 and -3 data not shown) is “specifically inhibits IL-2, IL-15 and IL-9; also recorded: restricted to IL-2, -15, and -9”. Also, in the test on human IL-15, the “inhibition of IL-15-induced proliferation of CTLL-2 cells” value is “inhibited IL-2 and IL-15 with an equal efficacy; also recorded: efficiently inhibits; also recorded: inhibition of IL-2 and IL-15”.
